Experimental data as given in patent US12594255B2, “Lipids with odd number of carbon atoms and their use as pharmaceutical composition or nutritional supplement” (SunRegen Healthcare AG, priority 2016, dated 2026).
Where two headings read alike, the source gives them in different places.

How the values were obtained:
[1] = tested on: mouse primary cortical neurons challenged with different types toxins; assay type: cell-based; settings: T3
[2] = tested on: mouse primary cortical neurons; assay: Axonal growth (MAP2 immunolabelling, axonal length); assay type: cell-based; settings: vehicle control 165.96±90.18 μm
Experimental: Mouse primary cortical neurons were pre-incubated for 48 h with vehicle, 60 nM sAPPα (used as positive control) or different concentrations of Compound C. Then, cortical neurons were treated for 24 h with vehicle. Data are represented as % of vehicle control (Mean±SD).
Cortical neurons from embryonic day 16-17 are prepared from C57Bl6/J mouse fetuses, as described in Example I-1. After 96-h incubation, axonal length is recorded. Briefly, cells were washed with ice-cold PBS and fixed with cold methanol. Following fixation, cells are immunolabelled using a specific antibody detecting total MAP2 protein. Antibodies to MAP2 are excellent markers on neuronal cells, their axons and neuronal dendrites. For quantification of axonal length, six independent images of labelled cells are captured using an inverted microscope. Pictures of cells are analyzed using Neuron-J software and axonal length is recorded manually. A minimum of 100 independent neurons are treated. The data are expressed as mean axonal length (expressed in μm) (Mean±SD). Statistical differences between vehicle-treated cells and cells treated with compounds are determined using a t-test.

`CCCCCCCCCCCCCCC(=O)OCC(COC(=O)CCCCCCCCCCCCCC)OC(=O)CCCCCCCCCCCCCC` [Compound C, tripentadecanoin] was tested, and the “anti-apoptotic and neuroprotective effects” value ([1]; Aβ1-42 fibrils, 10000 nM) was 223%, the “anti-apoptotic and neuroprotective effects” value ([1]; Aβ25-35 fibrils, 10000 nM) was 32.1% and the “anti-apoptotic and neuroprotective effects” value ([1]; alpha-synuclein fibrils, 1000 nM) was 34.0%. The “anti-apoptotic and neuroprotective effects” value ([1]; human alpha-synuclein oligomer-induced toxicity, 10000 nM) was 45.8%, the “anti-apoptotic and neuroprotective effects” value ([1]; human amylin fibrils, 1000 nM) was 45.3% and the “anti-apoptotic and neuroprotective effects” value ([1]; human amylin fibrils, 10000 nM) was 52.6%. For the same compound, the “anti-apoptotic and neuroprotective effects” value ([1]; human amylin oligomers, 1000 nM) was 30.8%, the “anti-apoptotic and neuroprotective effects” value ([1]; human amylin oligomers, 10000 nM) was 37.3% and the “anti-apoptotic and neuroprotective effects” value ([1]; human tau oligomer-induced toxicity, 10000 nM) was 46.8%. For the same compound, the “anti-apoptotic and neuroprotective effects” value ([1]; tau fibril-induced toxicity, 10000 nM) was 23.1%, the “neuronal axon outgrowth (mean axonal length)” value ([2]; 1000 nM) was 199.93±101.17 μm and the “neuronal axon outgrowth (mean axonal length)” value ([2]; 10000 nM) was 304.27±149.60 μm.
